Consider three compounds from patent US8372408B2, “Use of Phaeodactylum algae extract for depigmenting the skin” (LVMH Recherche, priority 2007, dated 2013).

Several values for one entry are separate records, joined by “and”; a condition that tells them apart may be missing. Equal values may be shown once. Residues, ends and D or L forms follow the SMILES beside them. *: point of attachment. Cbz = O=C(OCc1ccccc1)*

For assay [1], the target named is T1, proteasome (trypsin-like activity) of MNT1 cells (Homo sapiens, UniProt Q99436).
T1 construct: introduce in duplicate a fixed volume of cell lyzate; endogenous in cells; host or cells: MNT1 human melanocyte line (lysate)
T1 sequence (Q99436 44-277): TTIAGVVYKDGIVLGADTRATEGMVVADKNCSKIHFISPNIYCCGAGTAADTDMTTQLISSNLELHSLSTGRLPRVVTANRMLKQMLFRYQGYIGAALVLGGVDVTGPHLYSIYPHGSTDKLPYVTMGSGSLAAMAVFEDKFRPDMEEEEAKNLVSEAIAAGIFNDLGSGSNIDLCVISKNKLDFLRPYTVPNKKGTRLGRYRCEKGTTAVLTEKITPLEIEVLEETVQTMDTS
In words: Proteasome LSTR (trypsin-like) activity assay on lyzates of treated MNT1 cells. The format is cell-based. The settings on record: for Proteasome activity at 72 hours, Trypsin-like: MNT1 cells lyzed 72 hours after treatment, palmitic or linoleic acid 25 μM, Phaeodactylum 5 μg/ml, Mg132 120 nM where stated. As to the method:
2.1 Treatment of MNT1 Cells (Human Melanocyte Cell Lines) in Order to Assay the Proteasome and Tyrosinase Activities MNT1, 10^6 cells/dish 35 mm in diameter, in triplicate
Treatment on D1 • Linoleic acid 25 μM • Palmitic acid 25 μM • Phaeodactylum 5 μg/ml +1% BSA+Vitamin E 50 μM+Vitamin C 1 mM • Linoleic acid 25 μM • Palmitic acid 25 μM • Phaeodactylum 5 μg/ml Stirring with a magnetic bar at 37° C. for 1 hour • 2nd treatment on D4 +Cycloheximide 1 μg/ml (protein synthesis inhibitor)
+120 nM Mg132 for the assay of the tyrosinase activity. • Preparation of the lyzates after 4 hours 2 rinses with PBS (phosphate-buffered saline)
On a bed of ice; recovery in 150 μl of lysis buffer by scraping.
Freezing at […]. • Protein assay via the Bradford method • Proteasome activity assay The cells are rinsed twice with PBS and each peptidase activity of the proteasome is then determined by using a fluorogenic peptide substrate specific for each of the activities, in the presence and in the absence of a specific proteasome inhibitor, MG 132 (Leu-Leu-Leucinal). The peptide substrate products are the following: Leu-Leu-Val-Tyr-amc (LLVY-amc) for the chymotrypsin-like activity, Leu-Leu-Glu-na (LLE-na) for the post-glutamic hydrolase activity and Leu-Ser-Thr-Arg-amc (LSTR-amc) for the trypsin-like activity. The principle of the assay consists in monitoring over time the increase in fluorescence due to the release of the fluorophores aminomethylcoumarin or β-naphthylamine from the fluorogenic peptides. […]
Proteasome (LSTR Activity (Trypsin-Like)) Nt Boc LSTR-MCA→Nt Boc LSTR+MCA fluorescent Reading on a spectrofluorimeter at an excitation wavelength of 350 nm and an emission wavelength of 440 nm. c.4—Assay of the LSTR Activity • In a 96-well plate, introduce in duplicate a fixed volume of cell lyzate (determined from the lowest protein concentration of the samples, which should correspond to 50 μg of protein) and make up to 100 μl with TRIS buffer. • Add 100 μl of LSTR-MCA substrate prediluted to 80 μM in the TRIS buffer (40 μM final). • In parallel, check that it is indeed the proteasome activity by testing the inhibitor Mg132. • Add to 50 μg of protein 10 μl of solution of Mg132 prediluted to 400 μM in the TRIS buffer (20 μM final) and make up to 100 μl with TRIS buffer. Next, add 100 μl of LSTR substrate prediluted to 80 μM in the TRIS buffer (40 μM final). • Take the spectrofluorimeter readings at an excitation wavelength of 355 nm and an emission wavelength of 460 nm at a gain of 30, every 2 minutes, for 30 minutes.
The raw results are expressed in F.U./min. […]
For the assay of the proteasome activities, the cells were lyzed at 72 hours after the cell treatment, and the protein concentration was determined.

Assay [2] deals with tyrosinase in MNT-1 melanocytes. In words: Anti-tyrosinase western blot of treated MNT1 cells, bands quantified. As to conditions: for amount of tyrosinase, change in words: 24 hours or 72 hours after treatment of MNT-1 melanocytes, FIGS. 4A and 4B; for Quantification of tyrosinase at 24 hours / Quantification of tyrosinase at 72 hours: western blot bands, control = 100 %, palmitic or linoleic acid 25 μM, Phaeodactylum 5 μg/ml, Mg132 120 nM where stated; for Quantification of tyrosinase at 24 hours: MNT1 lyzed at 24 hours; for Quantification of tyrosinase at 72 hours: MNT1 lyzed at 72 hours. The assay is classed as cell-based, human. How it is done: 2.2 Treatment of MNT1 in Order to Assay the Proteasome, the Ubiquitin Proteins and the Tyrosinase by Western Blotting
10^6 MNT1 cells/dish 35 mm in diameter, in quadruplicate
Treatment on D1 • Linoleic acid 25 μM • Palmitic acid 25 μM • Phaeodactylum 5 μg/ml
+1% bovine serum albumin (BSA)+Vitamin E (Vitamin E) 50 μM+Vitamin C (Vitamin C) 1 mM • Linoleic acid 25 μM • Palmitic acid 25 μM • Phaeodactylum 5 μg/ml
Preparation of the Lyzates on D2, D3 and D4
Recovery of the cell lawn in 150 μl of Laemmli 2× buffer+1% DTT (10 mM) by scraping.
Electrophoresis of the proteins is performed in a polyacrylamide minigel 1 mm to […] thick, under denaturing and reducing conditions, in batch buffer according to the Laemmli method (1970). The gels containing 12% T, 2.7% C allow separation of the low molecular weight proteins ranging from 20 to 120 kDa. The gels containing 8% T; 2.7% C allow separation of the high molecular weight proteins from 35 to 250 kDa.
Next, this membrane is placed in contact with the primary antibody diluted to the optimum concentration in PBS-T with or without 5% milk (m/v) depending on the antibody, for 1 hour with stirring at room temperature or overnight at 4° C.
Under the action of peroxidase and an amplifier, the luminol is oxidized and goes into a transient excited state. Return to the ground state takes place by emission of photons, which strike an autoradiography film placed on the membrane.
The bands are quantified by means of the Gels Analysts 3.01 software.
Starting with cell extracts of MNT-1 melanocytes cultured under these various conditions, with the protocols defined in the “Materials and methods” section, the effects of the extracts of the alga Phaeodactylum tricornutum on the amount of tyrosinase and of its activity were characterized.
Background: A western blot detects proteins with antibodies after separation by electrophoresis.

Regarding `CC(C)C[C@@H](C=O)NC(=O)[C@H](CC(C)C)NC(=O)[C@H](CC(C)C)NC(=O)OCc1ccccc1` [Control + Mg132, Z-Leu-Leu-Leu-CHO] (Cbz-Leu-Leu-Leu-aldehyde), the “Proteasome activity at 72 hours, Trypsin-like” value (“Proteasome activity at 72 hours” for short) in assay [1] was found to be 627 ± 282 pmol/min/mg. Moreover, in assay [2], the “amount of tyrosinase, change in words” value was “this decrease may be reversed”; the “Quantification of tyrosinase at 24 hours” value was 100%; the “Quantification of tyrosinase at 72 hours” value stood at 100%.
Take `CCCCC/C=C\C/C=C\CCCCCCCC(=O)O` [Linoleic acid]: the “trypsin-like peptidase activity of the proteasome, change in words” value in assay [1] (72 hours after addition, MNT-1 melanocytes, FIG. 1C) was “increase and do so significantly”. In addition, the “Proteasome activity at 72 hours” value in assay [1] is reported as 2848 ± 424 pmol/min/mg. Further, in assay [2], the “amount of tyrosinase, change in words” value is given as “significant decrease”; the “Quantification of tyrosinase at 24 hours” value was 75% and 51%; the “Quantification of tyrosinase at 72 hours” value is 13% and 22%.
With `CCCCCCCCCCCCCCCC(=O)O` [Palmitic acid], the “Proteasome activity at 72 hours” value in assay [1] was 1998 ± 261 pmol/min/mg. For the same compound, in assay [2], the “Quantification of tyrosinase at 24 hours” value is 135% and 127%; the “Quantification of tyrosinase at 72 hours” value was 62% and 88%.
